Counter-ions that a name gives are not always drawn. Like-named read-outs stand apart in the source and are kept apart here.
What was measured:
[1] = test system: platelet aggregation induced by adenosine diphosphate (ADP); experiment: Inhibition of ADP-induced platelet aggregation in platelet rich plasma (Test Method B); assay type: cell-based, rabbit; settings: 2 min, ADP (2.5 μM), 37° C., read-out: ID50, ADP
Method: (§1) Platelet rich plasma (PRP) which contains 6.5-7.5×10^8 platelet/ml was prepared from rabbit blood. To the 200 μl of PRP, 5 μl of calcium chloride (1 mM) and 50 μl of pH 7.4 Tris-acetate solution (5 mM) containing 120 mM NaCl and test compound were added successively, and then stirred for 2 min. at 37° C. To the solution 5 μl of adenosine diphosphate (ADP) (2.5 μM) or collagen (2.5 μg/ml) was added as an aggregation inducer. Aggregation was measured by using an aggregometer (NKK HEMA TRACER 1).

[2] = test system: platelet aggregation induced by collagen; experiment: Inhibition of collagen-induced platelet aggregation in platelet rich plasma (Test Method B); assay type: cell-based, rabbit; settings: 2 min, collagen (2.5 μg/ml), 37° C., read-out: ID50, Collagen
Method: as §1

mean blood pressure = experiment: Antihypertensive test in DOCA/saline hypertensive rats (Test Method A); assay type: in vivo, male Wister rats; settings: Rattus norvegicus, DOCA hypertensive rats, read-out: Effect Max (mean ratio of maximum decrease of blood pressure); for inhibition in vivo at 0.1 mg/kg: c: orally; for inhibition in vivo at 1 mg/kg: d: orally
Method: Five-week old male Wister rats were uninephrectomized under anesthesia. Deoxycorticosterone acetate (DOCA) (30 mg/kg), suspended in peanut oil, was injected subcutaneously twice a week and 1% saline was substituted for the drinking water. Animals with mean blood pressure 150-200 mmHg were used for experiment between 5 and 7 weeks after surgery. The test compounds were administered intraperitonealy or orally. Blood pressure was measured at the femoral artery by means of a pressure transducer and recorded as electrically integrated values of mean arterial pressure.

[3] = Oryctolagus cuniculus, Platelet, pH 7.4, rabbit PRP
[4] = rabbit PRP, pH 7.4, listed as Ex. 76, 2 min
[5] = rabbit PRP, pH 7.4, listed as Ex. 75, 2 min

CC1NC(=O)N(C)N=C1c1ccc2c(c1)CCC(=O)N2C (stereo not drawn) [Example 71, 2,5-Dimethyl-6-(1-methyl-2-oxo-1,2,3,4-tetrahydroquinolin-6-yl)-4,5-dihydro-1,2,4-triazin-3(2H)-one]
IC50 [1, 3]: 9800 nM | IC50 [2, 3]: 17000 nM

CC1N=C(N2CCOCC2)NN=C1c1ccccc1 (stereo not drawn) [8-(2), 5-methyl-3-morpholino-6-phenyl-2,5-dihydro-1,2,4-triazine hydrochloride]
inhibition in vivo at 10 mg/kg (mean blood pressure; ip, a: intraperitonealy): 48.9%

CC1NC(=O)NN=C1c1ccc(Br)cc1 (stereo not drawn) [Example 32-(3), 37-(2), 6-(4-bromophenyl)-5-methyl-4,5-dihydro-1,2,4-triazin-3(2H)-one]
inhibition in vivo at 10 mg/kg (mean blood pressure; ip, a: intraperitonealy): 61.8% | inhibition in vivo at 10 mg/kg (mean blood pressure; po, b: orally): 58.3%

CC1NC(=O)NN=C1c1ccc(Cl)cc1 (stereo not drawn) [39-(2), 6-(4-Chlorophenyl)-5-methyl-4,5-dihydro-1,2,4-triazin-3(2H)-one]
inhibition in vivo at 10 mg/kg (mean blood pressure; ip, a: intraperitonealy): 57.1% | inhibition in vivo at 10 mg/kg (mean blood pressure; po, b: orally): 38.6%

CC1NC(=O)NN=C1c1ccc2c(c1)CCC(=O)N2 (stereo not drawn) [67-(3), 5-Methyl-6-(2-oxo-1,2,3,4-tetrahydroquinolin-6-yl)-4,5-dihydro-1,2,4-triazin-3(2H)-one]
inhibition in vivo at 0.1 mg/kg (mean blood pressure; po): 43% | IC50 [1, 3]: 54 nM | IC50 [2, 3]: 18 nM

CC1N=C(N2CCN(C(=O)c3ccco3)CC2)NN=C1c1ccccc1 (stereo not drawn) [4-(2), 3-[4-(2-Furoyl)-1-piperazinyl]-5-methyl-6-phenyl-2,5-dihydro-1,2,4-triazine]
inhibition in vivo at 10 mg/kg (mean blood pressure; ip, a: intraperitonealy): 48.9%

CC1N=C(N2CCCCC2)NN=C1c1ccccc1 (stereo not drawn) [10-(2), 5-Methyl-6-phenyl-3-piperidino-2,5-dihydro-1,2,4-triazine]
inhibition in vivo at 10 mg/kg (mean blood pressure; ip, a: intraperitonealy): 46.5% | inhibition in vivo at 10 mg/kg (mean blood pressure; po, b: orally): 50%

CCCCN1C(=O)CCc2cc(C3=NNC(=O)NC3C)ccc21 (stereo not drawn) [68-(3), 6-(1-Butyl-2-oxo-1,2,3,4-tetrahydroquinolin-6-yl)-5-methyl-4,5-dihydro-1,2,4-triazin-3(2H)-one]
inhibition in vivo at 1 mg/kg (mean blood pressure; po): 62% | IC50 [1, 3]: 140 nM | IC50 [2, 3]: 42 nM

CC1NC(=O)NN=C1c1ccccc1 (stereo not drawn) [36-(3), 5-methyl-6-phenyl-4,5-dihydro-1,2,4-triazin-3(2H)-one]
inhibition in vivo at 10 mg/kg (mean blood pressure; ip, a: intraperitonealy): 45.2%

CC1NC(=O)NN=C1c1ccc2c(c1)CCC(=O)N2C (single isomer, unassigned; (+)) [Example 76, (+)-5-Methyl-6-(1-methyl-2-oxo-1,2,3,4-tetrahydroquinolin-6-yl)-4,5-dihydro-1,2,4-triazin-3(2H)-one]
inhibition in vivo at 1 mg/kg (mean blood pressure; po): 56% | IC50 [1, 4]: 1200 nM | IC50 [2, 4]: 360 nM

CC1NC(=O)NN=C1c1ccc2c(c1)CCC(=O)N2C (single isomer, unassigned; (-)) [Example 75, (-)-5-methyl-6-(1-methyl-2-oxo-1,2,3,4-tetrahydroquinolin-6-yl)-4,5-dihydro-1,2,4-triazin-3(2H)-one]
inhibition in vivo at 0.1 mg/kg (mean blood pressure; po): 55% | IC50 [1, 5]: 98 nM | IC50 [2, 5]: 34 nM

CC1NC(=O)NN=C1c1ccc2c(c1)CCC(=O)N2C (stereo not drawn) [Example 49-(3), 77-(2), 5-methyl-6-(1-methyl-2-oxo-1,2,3,4-tetrahydroquinolin-6-yl)-4,5-dihydro-1,2,4-triazin-3(2H)-one]
inhibition in vivo at 0.1 mg/kg (mean blood pressure; po): 43% | inhibition in vivo at 1 mg/kg (mean blood pressure; po): 70% | IC50 [1, 3]: 160 nM | IC50 [2, 3]: 110 nM

CC1N=C(NN)NN=C1c1ccc(Cl)cc1 (stereo not drawn) [Example 25-(4), 6-(4-chlorophenyl)-3-hydrazino-5-methyl-2,5-dihydro-1,2,4-triazine hydrochloride]
inhibition in vivo at 10 mg/kg (mean blood pressure; ip, a: intraperitonealy): 51.7% | inhibition in vivo at 10 mg/kg (mean blood pressure; po, b: orally): 37.4%

CC1N=C(NCCO)NN=C1c1ccccc1 (stereo not drawn) [6-(2), 3-(2-Hydroxyethylamino)-5-methyl-6-phenyl-2,5-dihydro-1,2,4-triazine]
inhibition in vivo at 10 mg/kg (mean blood pressure; ip, a: intraperitonealy): 43.1%
